Measured values reported in US5599974A, “Aldehydic agents for allosteric modification of hemoglobin” (Center for Innovative Technology, priority 1994, dated 1997).

Assays:
human hemoglobin (HbA) = biological target: T1, human hemoglobin (HbA) (Homo sapiens, UniProt P69905); assay: Oxygen equilibrium studies of hemoglobin solutions (Hem-O-Scan oxygen dissociation curves); type: biochemical; conditions: hemoglobin solution; for P50 D (aver.) / ΔP50 (P50 D - P50 C): Hb 2.7 mM; for P50 D (aver.): compound 10 mM (approx. 4:1), 50 mM HEPES pH 7.4, incubated at 4° C. for two hours; for ΔP50 (P50 D - P50 C): compound 10 mM, 50 mM HEPES pH 7.4, positive = right shift
T1 construct: hemoglobin solution
From the text: In blood, hemoglobin is in equilibrium between two allosteric structures. In the "T" (for tense) state, hemoglobin is de-oxygenated. In the "R" (for relaxed) state, hemoglobin is oxygenated. An oxygen equilibrium curve can be scanned using well known equipment such as the Aminco™ Hem-o-scan to evaluate the affinity and degree of cooperativity (allosteric action) of hemoglobin. In the scan, the Y-axis plots the percent of hemoglobin oxygenation and the X-axis plots the partial pressure of oxygen in millimeters of mercury (mm Hg). If a horizontal line is drawn from the 50% oxygen saturation point to the scanned curve and a vertical line is drawn from the intersection point of the horizontal line with the curve to the partial pressure X-axis, a value commonly known as the P50 is determined. This is the pressure when the hemoglobin is 50% saturated with oxygen. By comparing the P50 value for treated hemoglobin to the P50 value for untreated normal adult human hemoglobin (HbA) under physiological conditions (i.e., 37° C., pH=7.4, and partial carbon dioxide pressure of 40 mm Hg), the degree of allosteric modification can be determined. When the P50 value for treated hemoglobin is lower than for HbA, a high oxygen affinity hemoglobin is indicated and the curve is said to be "left-shifted". Conversely, when the P50 value for treated hemoglobin is higher than for HbA, a low oxygen affinity hemoglobin is indicated and the curve is said to be "right-shifted".
In the oxygen equilibrium studies, the HbA was further purified by dialysis against pH 8.6. Tris buffer (50 mM, containing 40 mg EDTA/L) to remove any residual A2 hemoglobin. The pure HbA fraction was concentrated by using a Schleicher and Schuell colloidion bag apparatus, available from Schleicher and Schuell, Inc., with HEPES buffer (50 mM, pH 7.4) as the exchange buffer. The Hb concentration was determined by using the cyanmet method. The Hb concentration at this point was usually found to be around 35 g% (approximately 5.4 mM). Less than 5% methemoglobin was noted even after several days at 4° C. Oxygen dissociation curves were recorded on an AMINCO Hem-0-Scan oxygen dissociation analyzer available from Travenol Laboratories.
All compounds were dissolved in 50 mM HEPES buffer, pH 7.4, to give 20 mM of drug solution. The Hb (5.4 mM, in HEPES, pH 7.4) and the test compounds (20 mM) were mixed in 1:1 volume ratio (50μL of Hb+50μL of compound solution) to give final concentrations of 2.7 mM and 10mM, respectively (a molar ratio of test compound to hemoglobin of approximately 4:1). A control experiment was prepared by the addition of 50 μL of Hb to 50 μL of HEPES buffer. The mixtures were incubated at 4° C. for two hours before running the oxygen dissociation curves.

HbA = biological target: T2, HbA (Homo sapiens, UniProt P69905); assay: X-ray diffraction analysis of HbA/drug complexes (difference electron-density maps); type: binding; conditions: HbA tetramer/drug molar ratio 1:5 (TB17 1:10), Schiff base reduced, deoxygenated crystals
T2 construct: co-crystals with compounds
Description: Reaction of the drug compounds with HbA, crystallization and X-ray data collection of the HbA/drug complexes were performed according to the procedures of Wireko et al., Proc. Natl. Acad. Sci. USA, 1991, 88, 2209, which is herein incorporated by reference, with some slight modifications. Freshly prepared solutions of the synthesized compounds in potassium phosphate buffer were incubated at oxy HbA tetramer/drug molar ratios of 1:5 or 1:10 for at least 24 hours. Sodium cyanoborohydrie in phosphate buffer was added in 10- to 50-fold molar excess of HbA tetramer to reduce the Schiff's base adduct for at least 24 hours. The deoxygenated HbA/compound complexes were set up for crystallizations following the procedures described in Perutz et al., Crys. Growth, 1968, 2, 54, which is herein incorporated by reference, with some slight modifications. X-ray quality crystals for all complexes were obtained after three to seven days. Crystals of TB19 (discussed below) grown with HbA incubated and reduced under deoxygenated conditions was also used for data collection.
X-ray diffraction data for the MS2 complex (discussed below) was collected using a Rigaku AFC5R rotating anode diffractometer to a resolution of 4Å. All hk±1 reflections and their Friedel pairs were collected. One crystal, dimensions 0.3 to 1.2 mm was used for collection. Diffraction data for the rest of the complexes were collected with a Rigaku AFC5R rotating anode diffractometer equipped with an R-axis IIC image plate system, all to a resolution of 1.94A. Crystals of linear dimensions 0.2 to 0.5 mm were used. Data reduction, structure solution and calculation of Fourier difference electron-density maps were as described in Wireko et al., Proc. Natl. Acad. Sci. USA, 1991, 88, 2209.
Models of the compounds created with MMOD and minimized with MM2 force field were fitted to the electron-density by using FRODO on an EVANS and SUTHERLAND PS390 graphic station.
X-ray diffraction analyses were used to study several of the new drug complexes including MS1, MS2, TB8, TB10, TB17, TB19, TB32, TB36, TB62, and TB63. The difference electron-density maps of all complexes discussed are that of the HbA tetramer/drug molar ratio of 1:5, except TB17 which is 1:10. All drug molecules contain at least two functionalities, an aldehyde and a carboxylate, common to all of them. […] The only exception was MS2 where only one of the carboxylate oxygens was involved in the salt bridge interaction. The above binding site, which is common to all of the complexes, will be referred to as the α-cleft binding site. Some of the above drug compounds have additional functional groups which are also involved in additional interaction with other HbA residues, including hydrogen bonding, van der Waals interaction, and a second covalent bonding.
All complexes have two molecules of the drug compounds bound at the above-mentioned α-cleft site and are related by the two fold noncrystallographic axis. These sites are further noted as the α1-cleft site (Val-1α1 binding site), and the α2-cleft site (Val-1α2 binding site). In all complexes, the electron density at the α2-cleft site were slightly bigger and better defined than the electron density at the α1-cleft site. In addition to the binding at the α-cleft site, some of the drug compounds also bind to other secondary sites, including other sites in the α-cleft water cavity, the β-cleft water cavity located at Val-1β, and the Hb polymer contact site located near the residues His-116β and His-117β.

whole blood = assay: Whole-blood studies: effect on the oxygen affinity of whole blood; type: cell-based; conditions: for P50 D (aver.): heparinized whole blood mixed 1:1 with test compound solution, equilibrated 1 hour at 37° C., P50 C 25.0; for direction of shift of the oxygen equilibrium curve / ΔP50 D: whole blood; for ΔP50 D: 1 hour at 37° C., P50 D - P50 C

SMILES | direction of shift of the oxygen equilibrium curve (human hemoglobin (HbA)) | binding sites in HbA seen in the difference electron-density map (HbA) | P50 D (aver.) (whole blood) [mm Hg] | direction of shift of the oxygen equilibrium curve (whole blood) | ΔP50 D (whole blood) [mm Hg] | P50 D (aver.) (human hemoglobin (HbA)) [mm Hg] | ΔP50 (P50 D - P50 C) (human hemoglobin (HbA)) [mm Hg]
O=Cc1ccc(OCc2ccccc2)c(C(=O)O)c1 [TB17, 2-benzyloxy-5-formylbenzoic acid] | right shift | three molecules of TB17 reacted to the Hb tetramer | 14.5 | left shift | -9.5 | – | –
O=Cc1ccc(OCCCCOc2ccc(C=O)cc2C(=O)O)c(C(=O)O)c1 [TB19, 1,4-Bis(2-carboxy-4-formylphenoxy)-butane] | right shift | binding exclusively at the two symmetry-relatedα-cleft sites | 19.5 | left shift | -5.5 | 42.0 | 20.0
O=Cc1ccc(OCCOc2ccc(C=O)cc2C(=O)O)c(C(=O)O)c1 [TB63/41, 1,2-Bis(2-Carboxy-4-formylphenoxy)-ethane] | – | binding exclusively at the two symmetry-related α-cleft sites | – | – | – | 46.0 | 24.0
